The text below walks through data of patent US11130756B2, “[1,2,4]Triazolo[4,3-A]pyridinyl substituted indole compounds” (BRISTOL-MYERS SQUIBB COMPANY, priority 2017, dated 2021).

Holding throughout (assay type): cell-based
The target of one test is T1, human TLR7 (Homo sapiens, UniProt Q9NYK1).
T1 construct: host or cells: HEK-Blue cells
T1 sequence (Q9NYK1 27-1049): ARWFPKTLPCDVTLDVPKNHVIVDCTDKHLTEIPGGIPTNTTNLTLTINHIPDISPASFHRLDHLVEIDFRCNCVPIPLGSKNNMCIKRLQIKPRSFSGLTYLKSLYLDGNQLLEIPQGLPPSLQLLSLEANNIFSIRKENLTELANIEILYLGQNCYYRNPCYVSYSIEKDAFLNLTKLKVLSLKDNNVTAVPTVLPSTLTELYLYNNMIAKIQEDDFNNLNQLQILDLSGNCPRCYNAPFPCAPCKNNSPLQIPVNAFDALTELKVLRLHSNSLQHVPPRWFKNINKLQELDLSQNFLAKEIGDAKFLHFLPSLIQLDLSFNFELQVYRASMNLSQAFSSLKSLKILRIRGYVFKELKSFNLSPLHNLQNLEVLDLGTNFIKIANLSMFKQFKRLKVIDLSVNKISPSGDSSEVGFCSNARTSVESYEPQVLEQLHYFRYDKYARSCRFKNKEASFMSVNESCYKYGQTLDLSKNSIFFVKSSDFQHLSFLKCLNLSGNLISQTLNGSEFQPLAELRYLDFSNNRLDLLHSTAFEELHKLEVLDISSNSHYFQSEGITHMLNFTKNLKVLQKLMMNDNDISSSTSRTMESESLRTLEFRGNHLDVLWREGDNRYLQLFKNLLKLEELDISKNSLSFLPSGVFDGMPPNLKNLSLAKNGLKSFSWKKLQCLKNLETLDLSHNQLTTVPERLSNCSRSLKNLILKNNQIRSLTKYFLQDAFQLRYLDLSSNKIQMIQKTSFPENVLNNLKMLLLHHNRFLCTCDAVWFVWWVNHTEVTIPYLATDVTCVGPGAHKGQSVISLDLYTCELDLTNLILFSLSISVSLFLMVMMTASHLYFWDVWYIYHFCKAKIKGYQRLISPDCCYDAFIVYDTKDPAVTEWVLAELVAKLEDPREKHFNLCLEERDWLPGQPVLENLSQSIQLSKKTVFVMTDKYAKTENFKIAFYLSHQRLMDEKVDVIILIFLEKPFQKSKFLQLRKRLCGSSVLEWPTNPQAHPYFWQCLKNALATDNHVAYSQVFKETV
The experiment in a line: TLR7 inhibition reporter assay (HEK-Blue, SEAP). The note with it: HEK-Blue cells overexpressing human TLR7, gardiquimod 7.5 μM, 22 hour incubation. The protocol: (§1) TLR7/8/9 Inhibition Reporter Assays
(§2) HEK-Blue™-cells (Invivogen) overexpressing human TLR7, TLR8 or TLR9 receptors were used for screening inhibitors of these receptors using an inducible SEAP (secreted embryonic alkaline phosphatase) reporter gene under the control of the IFN-β minimal promoter fused to five NF-κB and AP-1-binding sites. Briefly, cells are seeded into Greiner 384 well plates (15000 cells per well for TLR7, 20,000 for TLR8 and 25,000 for TLR9) and then treated with test compounds in DMSO to yield a final dose response concentration range of 0.05 nM-50 μM. After a 30 minute compound pre-treatment at room temperature, the cells are then stimulated with a TLR7 ligand (gardiquimod at a final concentration of 7.5 μM), TLR8 ligand (R848 at a final concentration of 15.9 μM) or TLR9 ligand (ODN2006 at a final concentration of 5 nM) to activate NF-κB and AP-1 which induce the production of SEAP. After a 22 hour incubation at 37° C., 5% CO2, SEAP levels are determined with the addition of HEK-Blue™ Detection reagent (Invivogen), a cell culture medium that allows for detection of SEAP, according to manufacturer's specifications. The percent inhibition is determined as the % reduction in the HEK-Blue signal present in wells treated with agonist plus DMSO alone compared to wells treated with a known inhibitor.
(In general: In a reporter assay the amount or activity of a reporter protein is the signal.)

In another test the target is T2, human TLR8 (Homo sapiens, UniProt Q9NR97).
T2 construct: host or cells: HEK-Blue cells
T2 sequence (Q9NR97 27-1041): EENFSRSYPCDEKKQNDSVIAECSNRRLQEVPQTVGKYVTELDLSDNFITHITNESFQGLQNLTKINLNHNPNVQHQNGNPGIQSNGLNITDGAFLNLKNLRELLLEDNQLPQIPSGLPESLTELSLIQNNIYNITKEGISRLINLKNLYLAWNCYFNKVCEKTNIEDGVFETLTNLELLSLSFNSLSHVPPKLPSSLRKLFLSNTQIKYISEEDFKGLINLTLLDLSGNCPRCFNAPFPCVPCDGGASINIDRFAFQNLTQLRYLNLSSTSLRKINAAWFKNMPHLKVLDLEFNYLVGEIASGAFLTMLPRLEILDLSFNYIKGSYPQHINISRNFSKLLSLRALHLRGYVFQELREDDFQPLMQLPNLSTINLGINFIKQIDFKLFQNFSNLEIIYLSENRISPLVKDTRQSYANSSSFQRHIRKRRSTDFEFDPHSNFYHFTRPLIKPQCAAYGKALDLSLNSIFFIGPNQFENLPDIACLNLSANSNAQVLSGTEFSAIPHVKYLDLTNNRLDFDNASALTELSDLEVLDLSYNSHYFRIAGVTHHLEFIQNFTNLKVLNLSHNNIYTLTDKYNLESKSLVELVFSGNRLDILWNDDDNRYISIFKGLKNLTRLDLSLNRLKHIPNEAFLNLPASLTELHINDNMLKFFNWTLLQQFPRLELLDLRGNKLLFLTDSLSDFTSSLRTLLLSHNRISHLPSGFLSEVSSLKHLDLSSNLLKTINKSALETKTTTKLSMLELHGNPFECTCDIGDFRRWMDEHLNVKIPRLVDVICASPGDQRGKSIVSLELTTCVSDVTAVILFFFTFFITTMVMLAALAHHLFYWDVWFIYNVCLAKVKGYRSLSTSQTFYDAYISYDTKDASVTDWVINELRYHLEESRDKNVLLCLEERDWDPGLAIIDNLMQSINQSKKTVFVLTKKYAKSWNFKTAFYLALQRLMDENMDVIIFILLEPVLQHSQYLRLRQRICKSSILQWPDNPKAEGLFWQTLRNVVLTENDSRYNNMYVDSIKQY
The test is described as follows: TLR8 inhibition reporter assay (HEK-Blue, SEAP). The note with it: HEK-Blue cells overexpressing human TLR8, R848 15.9 μM, 22 hour incubation. The method, then:
as §1, §2

The target in the next test is T3, human TLR9 (Homo sapiens, UniProt Q9NR96).
T3 construct: host or cells: HEK-Blue cells
T3 sequence (Q9NR96 26-1032): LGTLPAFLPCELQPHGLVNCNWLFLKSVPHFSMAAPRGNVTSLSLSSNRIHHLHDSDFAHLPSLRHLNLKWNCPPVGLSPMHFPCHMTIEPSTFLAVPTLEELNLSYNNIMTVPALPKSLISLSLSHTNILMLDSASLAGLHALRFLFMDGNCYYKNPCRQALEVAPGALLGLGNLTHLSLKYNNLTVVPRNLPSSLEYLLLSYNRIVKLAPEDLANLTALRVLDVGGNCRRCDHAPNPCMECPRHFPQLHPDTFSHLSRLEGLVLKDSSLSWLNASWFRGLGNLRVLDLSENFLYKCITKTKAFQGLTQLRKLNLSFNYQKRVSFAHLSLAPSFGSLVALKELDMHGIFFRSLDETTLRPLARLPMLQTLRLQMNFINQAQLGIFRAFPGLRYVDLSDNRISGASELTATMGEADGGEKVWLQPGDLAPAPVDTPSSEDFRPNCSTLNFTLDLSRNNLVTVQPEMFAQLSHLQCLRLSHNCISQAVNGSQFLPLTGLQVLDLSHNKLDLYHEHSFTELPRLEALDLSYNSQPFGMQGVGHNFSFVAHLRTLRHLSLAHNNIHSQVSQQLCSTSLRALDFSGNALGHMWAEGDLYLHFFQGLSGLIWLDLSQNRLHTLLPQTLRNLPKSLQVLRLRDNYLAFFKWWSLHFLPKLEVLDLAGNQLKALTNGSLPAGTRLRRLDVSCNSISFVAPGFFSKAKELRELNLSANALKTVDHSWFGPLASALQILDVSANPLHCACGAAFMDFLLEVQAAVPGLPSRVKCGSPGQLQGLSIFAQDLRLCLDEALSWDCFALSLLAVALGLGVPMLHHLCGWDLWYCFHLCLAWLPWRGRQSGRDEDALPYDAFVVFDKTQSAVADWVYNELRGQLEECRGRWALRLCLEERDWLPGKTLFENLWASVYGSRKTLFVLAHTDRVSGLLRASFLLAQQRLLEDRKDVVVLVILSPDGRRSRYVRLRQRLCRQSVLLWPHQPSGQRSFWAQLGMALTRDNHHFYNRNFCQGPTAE
The experiment in a line: TLR9 inhibition reporter assay (HEK-Blue, SEAP). The note with it: HEK-Blue cells overexpressing human TLR9, ODN2006 5 nM, 22 hour incubation. The protocol:
as §1, §2

With `Cc1cc(-c2[nH]c3ccc(C4CCNCC4)cc3c2C(C)C)c(C)n2cnnc12` [Example 9, 6-(3-isopropyl-5-(piperidin-4-yl)-1H-indol-2-yl)-5,8-dimethyl-[1,2,4] triazolo[4,3-a]pyridine], the IC50 worked out at 31 nM against human TLR7, 11.5 nM against human TLR8 and 746 nM against human TLR9.

On to `Cc1c(-c2[nH]c3ccc(C4CCNCC4)cc3c2C(C)C)cn2cnnc2c1Cl` [Example 10, 8-chloro-6-(3-isopropyl-5-(piperidin-4-yl)-1H-indol-2-yl)-7-methyl-[1,2,4]triazolo[4,3-a]pyridine], for which the half-inhibitory concentration (IC50) against human TLR7 came out at 4.6 nM; against human TLR8, 107 nM; against human TLR9, 3120 nM.

In the case of `COc1cc(-c2[nH]c3ccc(C4CCNCC4)cc3c2C(C)C)cn2cnnc12` [Example 11, 6-(3-isopropyl-5-(piperidin-4-yl)-1H-indol-2-yl)-8-methoxy-[1,2,4]triazolo[4,3-a]pyridine], the IC50 on human TLR7 worked out at 6.2 nM; against human TLR8 it was 74 nM; against human TLR9, 563 nM.

In the case of `Cc1cc(-c2[nH]c3ccc(C4CCN(CC(=O)N(C)C)CC4)cc3c2C(C)C)cn2cnnc12` [Example 12, 2-(4-(3-isopropyl-2-(8-methyl-[1,2,4]triazolo[4,3-a]pyridin-6-yl)-1H-indol-5-yl)piperidin-1-yl)-N,N-dimethylacetamide], the IC50 was 1.5 nM against human TLR7, 6.9 nM against human TLR8 and 1900 nM against human TLR9.

Consider `CNC(=O)CN1CCC(c2ccc3[nH]c(-c4ccc5nncn5c4)c(C(C)C)c3c2)CC1` [Example 13, 2-(4-(2-([1,2,4]triazolo[4,3-a]pyridin-6-yl)-3-isopropyl-1H-indol-5-yl)piperidin-1-yl)-N-methylacetamide], for which the values for the IC50 against human TLR7, on human TLR8 and at human TLR9 were 6.8 nM, 98 nM and 1110 nM, respectively.

For the compound `CC(C)c1c(-c2ccc3nncn3c2)[nH]c2ccc(C3CCN(CC(=O)N(C)C)CC3)cc12` [Example 14, 2-(4-(2-([1,2,4]triazolo[4,3-a]pyridin-6-yl)-3-isopropyl-1H-indol-5-yl)piperidin-1-yl)-N,N-dimethylacetamide], the IC50 came to 31.8 nM on human TLR7, 308 nM against human TLR8 and 222 nM against human TLR9.

`CNC(=O)CN1CCC(c2ccc3[nH]c(-c4cn5cnnc5cc4C)c(C(C)C)c3c2)CC1` [Example 15, 2-(4-(3-isopropyl-2-(7-methyl-[1,2,4]triazolo[4,3-a]pyridin-6-yl)-1H-indol-5-yl)piperidin-1-yl)-N-methylacetamide]: the 50% inhibitory concentration (IC50) against human TLR7 was 15 nM; against human TLR8, 245 nM; at human TLR9, 1100 nM.

`CNC(=O)CN1CCC(c2ccc3[nH]c(-c4cc(C)c5nncn5c4)c(C(C)C)c3c2)CC1` [Example 16, 2-(4-(3-isopropyl-2-(8-methyl-[1,2,4]triazolo[4,3-a]pyridin-6-yl)-1H-indol-5-yl)piperidin-1-yl)-N-methylacetamide]: the IC50 against human TLR7 is 2 nM; on human TLR8, 10.2 nM; on human TLR9 it was 2520 nM.

With `CNC(=O)CN1CCC(c2ccc3[nH]c(-c4ccc5nnc(C)n5c4)c(C(C)C)c3c2)CC1` [Example 17, 2-(4-(3-isopropyl-2-(3-methyl-[1,2,4]triazolo[4,3-a]pyridin-6-yl)-1H-indol-5-yl)piperidin-1-yl)-N-methylacetamide], the IC50 against human TLR7 is 44.7 nM; against human TLR8, 31.4 nM; at human TLR9, 2770 nM.

`Cc1cc2nncn2cc1-c1[nH]c2ccc(C3CCN(CC(=O)N(C)C)CC3)cc2c1C(C)C` [Example 18, 2-(4-(3-isopropyl-2-(7-methyl-[1,2,4]triazolo[4,3-a]pyridin-6-yl)-1H-indol-5-yl)piperidin-1-yl)-N,N-dimethylacetamide]: the values for the IC50 against human TLR7, against human TLR8 and against human TLR9 were 65.9 nM, 715 nM and 685 nM, respectively.

As to `Cc1nnc2ccc(-c3[nH]c4ccc(C5CCN(CC(=O)N(C)C)CC5)cc4c3C(C)C)cn12` [Example 19, 2-(4-(3-isopropyl-2-(3-methyl-[1,2,4]triazolo[4,3-a]pyridin-6-yl)-1H-indol-5-yl)piperidin-1-yl)-N,N-dimethylacetamide], the results for the half-inhibitory concentration (IC50) at human TLR7, against human TLR8 and against human TLR9 were 48.6 nM, 29.6 nM and 1660 nM, respectively.

One may read the IC50 as the concentration that inhibits the measured activity by half.
